The text below walks through data of patent US20070178439A1, “Control of es cell self renewal and lineage specification, and medium therefor” (priority 2003, published 2007).

Entries after “also recorded” stand apart in the source; their conditions may differ.

Holding throughout (assay type): cell-based, mouse
For assay [1], the system named is ES cells. In words: ES cell self-renewal versus differentiation in serum-free N2B27 adherent culture with passaging. The settings on record: for ES cell self-renewal / differentiation: N2B27 serum-free, factor(s) as labelled; for ES cell self-renewal with TGF-β superfamily ligand or other factor in place of BMP4: N2B27, in the presence of LIF. As to the method: (§1) ES cells were maintained without feeder cells. For serum-free culture, ES cells were plated onto gelatin-coated plates in N2B27 medium (Ying and Smith, 2003) supplemented with 10 ng/ml LIF (Sigma) and 10 ng/ml BMP4 or 200 ng/ml GDF6 (R&D Systems). Cells were passaged every 2-4 days using either enzyme-free Cell Dissociation Buffer (Invitrogen) or 0.025% trypsin/1% chicken serum. Dissociated cells were harvested in N2B27 and pelleted. Supernatant was aspirated and the cell pellet resuspended in N2B27 and replated directly. For single cell cloning, a finely drawn Pasteur pipette pre-loaded with N2B27 was used to pick individual cells into 10 μl drops. Drops were then singly transferred to 96-well plates pre-loaded with 150 μl N2B27 per well with LIF or LIF plus BMP4. After 8 days, ES cell colonies were identified and passaged. To produce chimaeras, ES cells were injected into C57Bl/6 blastocysts. Germline transmission was tested by mating male chimaeras with C57Bl/6 females.

Assay [2] has as its system Id1 Transfectants. In words: Propagation of single ES cells in serum-free medium (single cell cloning), Id1 transfectants.
Text: Under these conditions the transfectants were not overtly different from parental ES cells or empty vector transfectants. In contrast, in serum-free N2B27, Id transfectants whilst remaining LIF-dependent, were liberated from requirement for BMP. These cells proliferated in LIF alone as rapidly and with as little differentiation as parental ES cells in LIF plus BMP. The cultures could be passaged multiple times with no change in undifferentiated morphology or factor dependence. The ES cell phenotype was confirmed by expression of Oct4 and Nanog mRNAs (FIG. 4D). As a rigorous test of the capacity of Id expression to substitute for serum or BMP/GDF, we plated single cells in N2B27.
as §1

The subject of assay [3] is Id genes. Kind of assay: Gene induction in Oct4-selected ES cells (LightCycler RT-PCR, Northern hybridisation). Particulars: overnight in N2B27, then stimulated 45 minutes. As for the experimental part: (§2) Oct4GiP ES cells (Ying et al., 2002) were cultured in the presence of puromycin for 4-6 days to eliminate differentiated cells. Purified ES cells were cultured in complete medium plus LIF for 24 hours then washed once with PBS and transferred to N2B27 medium overnight prior to stimulation for 45 min. with 20 ng/ml LIF, 50 ng/ml BMP4, LIF plus BMP4, 10 ng/ml TGF-β1 (all R&D Systems) or 15% FCS. Quantitative RT-PCR was carried out using the LightCycler Instrument (Roche). Data were normalised relative to Oct4 amplification. Primer pairs and reaction conditions are available upon request. Northern hybridizations were carried out on 5 μg aliquots of total RNA.

Assay [4] deals with p38 and erk mitogen-activated protein kinases. Kind of assay: Immunoblot of p38 and erk activation in undifferentiated ES cells. As to the method:
(§3) Pre-selected Oct4GiP ES cells were transferred to N2B27 medium overnight prior to stimulation with LIF (20 ng/ml), BMP4 (50 ng/ml) or LIF plus BMP4 for 15 min or 1 hour. Phosphorylated stat3, smad1, erk1/2 and p38 were detected by immunoblotting (Cell Signaling Technology). Cell lysis and immunoprecipitation (Nakashima et al., 1997) employed anti-FLAG (Sigma) or anti-Stat3 (Transduction Labs). Immunostaining was performed as described (Ying et al., 2003)
(Immunoblotting shows a protein as a band on a membrane.)

Assay [5] relates to STAT3. Kind of assay: Immunoblot of STAT3 tyrosine 705 phosphorylation in ES cells. As to the method: as §3
Assay [6] relates to Smad1. In words: Immunoblot of active serine phosphorylated Smad1 in undifferentiated ES cells. Particulars: 15 min or 1 hour stimulation. As for the experimental part:
as §3

For assay [7], the system named is tis11, c-fos, junB, socs3. Kind of assay: Induction of known LIF target genes in Oct-selected ES cells (real time RT-PCR). The settings on record: 45 min stimulation. As to the method: as §2
In general terms: In qPCR the cycle at which signal appears reflects the starting amount.

The subject of assay [8] is blastocysts / inner cell masses. In words: Derivation of ES cells from blastocysts in serum free medium. The settings on record: ICM dissociated after 4 days of blastocyst culture in LIF only, BMP4 added on replating. An excerpt:
We investigated whether the response to BMP may be an adaptation of established ES cells to culture or is manifest during the initial stages of ES cell derivation. We plated blastocysts in N2B27 supplemented with BMP plus LIF. After several days expanded inner cell masses (ICMs) were dissociated and replated in the same culture conditions. […] Therefore we subsequently dissociated the ICM after only 4 days of blastocyst culture in LIF only and added BMP4 on replating. […] These could be passaged and expanded as morphologically undifferentiated ES cells. One line (SF1) was characterised further. Upon withdrawal of LIF and BMP, SF1 ES cells underwent neural differentiation in vitro. Moreover, SF1 cells produced extensively chimaeric mice (FIG. 2F). Twelve chimaeras were all male, indicative of sex conversion by highly contributing XY ES cells (Bradley et al., 1984).
Strain 129 mice were ovariectomised on the third day of pregnancy and embryos in diapause flushed 4 days later (Nichols et al., 1990). Intact blastocysts were plated on gelatin-coated plastic in N2B27 supplemented with LIF (10 ng/ml). After 3-6 days the central mass of each explant was picked, rinsed in PBS and placed in a drop of trypsin for a few minutes. […]

Setting [9] is: Id1 transfectants, single cells, N2B27 serum-free.

For `C[S+]([O-])c1ccc(-c2nc(-c3ccncc3)c(-c3ccc(F)cc3)[nH]2)cc1` (stereo not drawn) [SB203580, reference compound], in assay [1] (30 μM, N2B27), the “Effect of p38 inhibitor on balance of self-renewal and neural differentiation in LIF only” value was “does not suppress; also recorded: did not alter the balance between self-renewal and neural differentiation”; the “Effect of p38 inhibitor on self-renewal in LIF plus BMP” value is “does not suppress; also recorded: no noticeable effect”. Also, the “Overall cell viability in LIF only” value in assay [1] (N2B27) was “appeared to enhance overall cell viability”.

Turning to “LIF: gp130 receptor binding cytokine, Leukaemia Inhibitory Factor”, the “ES cell self-renewal / differentiation” value in assay [1] is on record as “reduces but does not eliminate neural differentiation”. Besides, in assay [1] (successive passaging in N2B27), the “Passages after which number of undifferentiated ES cells began to decline” value is listed as 2-3 passages. Besides, in assay [2] (setting [9]), the “Number of colonies expanded” value is reported as 16 and the “Number of colonies formed at day 8” value amounted to 19. In assay [2] (Id transfectants, N2B27), the “Frequency of undifferentiated passageable colony formation from single cells” value was determined as 10%.

In the case of “TGF-β1: TGF-β superfamily member, not a BMP receptor ligand”, the “ES cell self-renewal with TGF-β superfamily ligand or other factor in place of BMP4” value (from here on “ES cell self-renewal … of BMP4”) in assay [1] is on record as “no discernible effect on ES cells”. Besides, the “Id gene (Id1, Id2, Id3) mRNA induction” value in assay [3] is reported as “Neither activin (data not shown) nor TGF-β1 induce Id gene expression”.

With activin, in assay [1], the “ES cell self-renewal … of BMP4” value is recorded as “increased viability and/or proliferation but did not suppress differentiation”. The “Id gene (Id1, Id2, Id3) mRNA induction” value in assay [3] is given as “Neither activin (data not shown) nor TGF-β1 induce Id gene expression”.

Turning to fibronectin, the “Passages over which undifferentiated Oct4-GiP cells could be expanded” value in assay [1] (N2B27, in combination with LIF) is “at least 10 passages”. In assay [1], the “ES cell self-renewal … of BMP4” value is “more differentiation and slower population expansion than in BMP”. The “Id gene (Id1, Id2, Id3) mRNA induction” value in assay [3] was “induced by foetal calf serum and by fibronectin, although to a lesser extent than by BMP”.

B1: BMP4: BMP receptor ligand, agonist of the TGF-β superfamily signalling pathway (protein, UniProt P12644 293-408, looked up)
Bone morphogenetic protein 4: SPKHHSQRARKKNKNCRRHSLYVDFSDVGWNDWIVAPPGYQAFYCHGDCPFPLADHLNSTNHAIVQTLVNSVNSSIPKACCVPTELSAISMLYLDEYDKVVLKNYQEMVVEGCGCR
Regarding B1, the “Erk activation in response to LIF in presence of BMP” value in assay [4] (LIF plus BMP) is recorded as “not appreciably inhibited”. Moreover, in assay [4] (undifferentiated ES cells, 15 min or 1 hour stimulation), the “Activation of p38 and erk” value is listed as “enhances the basal activation of p38 and, by one hour, of erk”. Moreover, the “ES cell self-renewal / differentiation” value in assay [1] is given as “differentiation into sheets of flattened epithelial-like cells”. Further, the “STAT3 activation (phosphorylation of tyrosine 705)” value in assay [5] (BMP alone) is reported as “does not activate STAT3”. In addition, the “STAT3 activation by LIF in presence of BMP” value in assay [5] (LIF plus BMP) is “Nor does it increase STAT3 activation by LIF”. In assay [6], the “Phosphorylation of Smad1” value was “Increased phosphorylation of Smad1”. Further, in assay [7], the “Induction of junB and socs3 mRNA” value is “more highly induced by LIF in the presence of BMP”; the “Induction of tis11 and c-fos mRNA” value was “showed no response to BMP”. In addition, in assay [8], the “Formation of primary ES cell colonies” value is “primary ES cell colonies did form”. Also, in assay [3], the “Id gene (Id1, Id2, Id3) mRNA induction” value is recorded as “strongly induced”.

B2: GDF-6: BMP relative growth and differentiation factor-6 (protein, UniProt Q6KF10 336-455, looked up)
Growth/differentiation factor …: TAFASRHGKRHGKKSRLRCSKKPLHVNFKELGWDDWIIAPLEYEAYHCEGVCDFPLRSHLEPTNHAIIQTLMNSMDPGSTPPSCCVPTKLTPISILYIDAGNNVVYKQYEDMVVESCGCR
For the molecule B2, in assay [1], the “ES cell self-renewal … of BMP4” value is reported as “similarly supported ES cell self-renewal”. For the same molecule, the “Id gene (Id1, Id2, Id3) mRNA induction” value in assay [3] was “strongly induced”.
